Measured values from article PMC8002452, “Molecular Basis of AmpC β-Lactamase Induction by Avibactam in Pseudomonas aeruginosa: PBP Occupancy, Live Cell Binding Dynamics and Impact on Resistant Clinical Isolates Harboring PDC-X Variants” (International Journal of Molecular Sciences, 2021).

How the values were obtained:
[1] = target: PBP4 (Pseudomonas aeruginosa, UniProt Q9HZG1); test: Isolated PBP-containing membranes time-course binding assay; design: species or system P. aeruginosa PAO1; details: isolated PAO1 membranes, 4 µg/mL avibactam, 15-60 min; read-out: PBP4 total fraction bound
Procedure: (§1) Figure 2 Time-course of intact cells and isolated PBP-binding assay. P. aeruginosa PAO1 cultures (a) and isolated PBP-containing membrane preparations (b) were incubated for 15, 30 and 60 min in the presence of 4 µg/mL avibactam (AVI). After isolating PBP-containing membranes, preparations were labeled with 25 µM bocillin FL. The graphs represent the PBP fraction unbound relative to each time control over time. The mean PBP fraction unbound values from at least three independent experiments ± standard deviations are shown.
(§2) In parallel to the aforementioned assay, we performed analogous experiments in which isolated PBP-containing membrane preparations instead of intact cells were pre-exposed to avibactam. Briefly, membrane preparations containing PBPs were obtained by following previously described protocols and were incubated for 15, 30 and 60 min at 37 °C in the presence of 4 µg/mL avibactam and were afterwards labeled with bocillin FL (25 μM). Determination of the PBP fraction unbound was performed as described in the above section.

[2] = target: PBP5/6 (Pseudomonas aeruginosa, UniProt G3XD74); test: as above; design: species or system P. aeruginosa PAO1; details: isolated PAO1 membranes, 4 µg/mL avibactam, 15-60 min; read-out: PBP5/6 total fraction bound
Procedure: as §1, §2

[3] = system: ampC mRNA in 101-E5 (CAZ/AVI-sensitive ST175 clinical isolate); test: qRT-PCR quantification of AmpC induction; format: cell-based, P. aeruginosa; details: IPM 8, FOX 64, AVI 16 µg/mL, relative to strain basal t=0
Procedure: (§3) Samples were taken at 0, 30 and 180 min. Total RNA was extracted with the RNeasy Mini Kit (Qiagen, Hilden, Germany) and treated with TURBO DNase (Thermo Fisher Scientific, Waltham, MA, USA) to remove contaminating DNA. Samples were afterwards normalized to 50 ng/µL.
(§4) Normalized samples were then used for one-step reverse transcription and real-time PCR amplification using the QuantiTect SYBR green qRT-PCR kit (Qiagen, Hilden, Germany) in a CFX Connect Real-Time PCR System (Bio-Rad, Hercules, California, USA). Previously described primer pairs ACrnaF/ACrnaR and rpsL-1/rpsL-2 were used for the amplification of ampC and housekeeping gene rpsL, respectively. The mean values of relative mRNA expression (2^−ΔΔCt) obtained from at least two independent biological replicates and duplicate technical replicates were considered.

[4] = system: ampC mRNA in 103-H8 (AmpC E247K; PDC-221, CAZ/AVI-resistant ST175 clinical isolate); test: qRT-PCR quantification of AmpC induction; format: cell-based, P. aeruginosa; details: IPM 8, FOX 64, AVI 16 µg/mL, relative to strain basal t=0
Procedure: as §3, §4

[5] = system: ampC mRNA in 109-E9 (CAZ/AVI-sensitive ST175 clinical isolate); test: qRT-PCR quantification of AmpC induction; format: cell-based, P. aeruginosa; details: IPM 8, FOX 64, AVI 16 µg/mL, relative to strain basal t=0
Procedure: as §3, §4

[6] = system: ampC mRNA in 110-G8 (AmpC DelG229–E247; PDC-223, CAZ/AVI-resistant ST175 clinical isolate); test: qRT-PCR quantification of AmpC induction; format: cell-based, P. aeruginosa; details: IPM 8, FOX 64, AVI 16 µg/mL, relative to strain basal t=0
Procedure: as §3, §4

[7] = system: ampC mRNA in wild-type PAO1; test: qRT-PCR quantification of AmpC induction; format: cell-based, P. aeruginosa; details: IPM 8, FOX 64, AVI 16 µg/mL, relative to strain basal t=0
Procedure: as §3, §4

PBP4, sequence (Q9HZG1 entry or part of it): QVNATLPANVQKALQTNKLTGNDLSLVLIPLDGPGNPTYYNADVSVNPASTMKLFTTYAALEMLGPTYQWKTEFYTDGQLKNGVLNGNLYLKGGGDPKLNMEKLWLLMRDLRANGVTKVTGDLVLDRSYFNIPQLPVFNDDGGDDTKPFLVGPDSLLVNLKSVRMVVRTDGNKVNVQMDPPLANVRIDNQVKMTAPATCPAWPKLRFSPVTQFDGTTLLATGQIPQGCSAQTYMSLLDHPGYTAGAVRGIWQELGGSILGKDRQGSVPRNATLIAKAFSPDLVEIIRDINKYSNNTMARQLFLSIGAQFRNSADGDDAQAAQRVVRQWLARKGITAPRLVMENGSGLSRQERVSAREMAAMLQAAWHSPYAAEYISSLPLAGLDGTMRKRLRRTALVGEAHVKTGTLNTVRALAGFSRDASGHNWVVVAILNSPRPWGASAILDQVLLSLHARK
PBP5/6, sequence (G3XD74 entry or part of it): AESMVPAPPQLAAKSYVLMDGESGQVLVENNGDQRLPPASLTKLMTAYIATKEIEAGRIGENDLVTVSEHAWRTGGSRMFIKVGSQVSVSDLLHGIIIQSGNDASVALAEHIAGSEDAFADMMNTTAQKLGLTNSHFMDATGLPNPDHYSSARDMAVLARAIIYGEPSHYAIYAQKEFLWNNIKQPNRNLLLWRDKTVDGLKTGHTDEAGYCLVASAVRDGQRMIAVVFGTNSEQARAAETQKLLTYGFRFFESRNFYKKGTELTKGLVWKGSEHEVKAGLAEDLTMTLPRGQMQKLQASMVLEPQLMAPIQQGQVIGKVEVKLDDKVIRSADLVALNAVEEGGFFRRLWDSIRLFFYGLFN

In the case of `NC(=O)[C@@H]1CC[C@@H]2CN1C(=O)N2OS(=O)(=O)O` [Avibactam], the inhibition at 4 µg/mL [1] is reported as no more than 68%, the inhibition at 4 µg/mL [2] is reported as no more than 82% and the “Relative ampC expression” value ([3]; 101-E5, 0 min) is reported as 1.2. For the same molecule, the “Relative ampC expression” value ([3]; 101-E5, 30 min) was 0.5, the “Relative ampC expression” value ([3]; 101-E5, 180 min) was 3.1 and the “Relative ampC expression” value ([4]; 103-H8, 0 min) was 1.4. The “Relative ampC expression” value ([4]; 103-H8, 30 min) was 2.1, the “Relative ampC expression” value ([4]; 103-H8, 180 min) was 6.9 and the “Relative ampC expression” value ([5]; 109-E9, 0 min) was 0.9. The “Relative ampC expression” value ([5]; 109-E9, 30 min) was 1.5, the “Relative ampC expression” value ([5]; 109-E9, 180 min) was 6.2 and the “Relative ampC expression” value ([6]; 110-G8, 0 min) was 3.3. For the same molecule, the “Relative ampC expression” value ([6]; 110-G8, 30 min) was 2.6, the “Relative ampC expression” value ([6]; 110-G8, 180 min) was 8.7 and the “Relative ampC expression” value ([7]; PAO1, 0 min) was 1.1. The “Relative ampC expression” value ([7]; PAO1, 30 min) was 5.8, the “Relative ampC expression” value ([7]; PAO1, 180 min) was 60.6 ± 25.2 and the “Relative ampC expression” value ([7]; PAO1, 180 min, listed as AVI) was 60.6.
